According to PMC11348465, “Pharmacochemical Study of Multitarget Amino Acids’ Hybrids: Design, Synthesis, In vitro, and In silico Studies” (Medicinal Chemistry (Shariqah (United Arab Emirates), 2024):

Key:
[1] = Inhibition of linoleic acid peroxidation (AAPH-induced)
Procedure: Our group evaluated the in vitro study as reported previously. Ten 16 mM sodium linoleate solution microliters were added to the UV cuvette containing 93 µL of a 0.05 M phosphate buffer, pH 7.4, and 10 µL of the tested compounds (final concentration 100 µM). The oxidation reaction started at 37 °C under air by adding 50 µL of the free radical initiator AAPH (40 mM). Oxidation was carried out and monitored at 234 nm. DMSO under the same conditions was used as a negative control. Trolox was used as the appropriate standard (positive control). The results are given in Table S1 in the supplementary material.
We used the water-soluble 2, 2’-azobis(2-amidinopropane) hydrochloride (AAPH) to generate in vitro peroxyl radicals through spontaneous thermal decomposition, which resembles cellular lipid peroxidation due to the activity of the undertaken radicals. The anti-lipid peroxidation activities were compared to a well-known antioxidant, i.e., Trolox (Table S1 in the supplementary material). […] In general, the anti-lipid peroxidation ranged from 8-99%. Except for acids 11, 12, 17, 19, 21, 22, 24, 25, and 28, which present high antioxidant activities (on the high % level), the other cinnamic acids present low or medium activity.

ovine COX-2 = target: T1, ovine COX-2 (Ovis aries, UniProt P79208); test: Cyclooxygenase-2 inhibition study; format: biochemical; details: for IC50: read-out: COX-2 inhibition (IC50); for COX-2 inhibition (%): % inhibition at 100 µM
T1 construct: purchased Cayman (USA)
T1 sequence (P79208 17-603): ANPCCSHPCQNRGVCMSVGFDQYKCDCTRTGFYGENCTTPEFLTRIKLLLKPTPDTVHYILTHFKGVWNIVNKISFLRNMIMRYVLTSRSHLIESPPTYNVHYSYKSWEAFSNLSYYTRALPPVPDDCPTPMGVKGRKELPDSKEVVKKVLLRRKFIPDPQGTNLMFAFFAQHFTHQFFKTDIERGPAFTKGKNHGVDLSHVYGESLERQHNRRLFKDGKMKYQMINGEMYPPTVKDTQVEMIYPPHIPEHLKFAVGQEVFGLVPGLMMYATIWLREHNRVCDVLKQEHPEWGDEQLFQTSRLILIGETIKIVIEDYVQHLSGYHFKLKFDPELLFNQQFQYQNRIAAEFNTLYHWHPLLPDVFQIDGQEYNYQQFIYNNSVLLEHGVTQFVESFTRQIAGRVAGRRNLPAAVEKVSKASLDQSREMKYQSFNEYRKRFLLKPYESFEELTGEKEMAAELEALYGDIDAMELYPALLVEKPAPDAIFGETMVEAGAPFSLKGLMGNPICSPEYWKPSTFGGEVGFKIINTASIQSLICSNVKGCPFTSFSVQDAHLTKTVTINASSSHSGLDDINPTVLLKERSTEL
Procedure: The in vitro study of cyclooxygenase (COX) activity was determined by using arachidonic acid (AA) as the substrate and N,N,N’,N’-tetramethylphenylenediamine (TMPD) as the co-substrate. […] The absorption due to the spontaneous oxidation of TMPD was subtracted from the initial rate of oxidation observed in the presence of AA. […] A blank determination was used first to serve as a negative control. Indomethacin was used as a reference COX-2 inhibitor (positive control).
The role of COX-2 in neurodegenerative diseases has been reported, and COX-2 inhibition is considered of high importance as a therapeutic tool. The designed derivatives were tested for their COX-2 inhibition activity on the ovine COX-2 enzyme. […] Indomethacin was used as a reference compound.

[2] = target: T2, soybean lipoxygenase (LOX-1) (Glycine max, UniProt P08170); test: Soybean lipoxygenase inhibition study; format: biochemical; details: for IC50: read-out: LOX inhibition (IC50); for inhibition at 100 µM: read-out: LOX inhibition (%); for LOX inhibition (%): % inhibition at 100 µM
T2 construct: purchased Sigma Chemical, Co. (St Louis, MO, USA)
T2 sequence (P08170 1-839): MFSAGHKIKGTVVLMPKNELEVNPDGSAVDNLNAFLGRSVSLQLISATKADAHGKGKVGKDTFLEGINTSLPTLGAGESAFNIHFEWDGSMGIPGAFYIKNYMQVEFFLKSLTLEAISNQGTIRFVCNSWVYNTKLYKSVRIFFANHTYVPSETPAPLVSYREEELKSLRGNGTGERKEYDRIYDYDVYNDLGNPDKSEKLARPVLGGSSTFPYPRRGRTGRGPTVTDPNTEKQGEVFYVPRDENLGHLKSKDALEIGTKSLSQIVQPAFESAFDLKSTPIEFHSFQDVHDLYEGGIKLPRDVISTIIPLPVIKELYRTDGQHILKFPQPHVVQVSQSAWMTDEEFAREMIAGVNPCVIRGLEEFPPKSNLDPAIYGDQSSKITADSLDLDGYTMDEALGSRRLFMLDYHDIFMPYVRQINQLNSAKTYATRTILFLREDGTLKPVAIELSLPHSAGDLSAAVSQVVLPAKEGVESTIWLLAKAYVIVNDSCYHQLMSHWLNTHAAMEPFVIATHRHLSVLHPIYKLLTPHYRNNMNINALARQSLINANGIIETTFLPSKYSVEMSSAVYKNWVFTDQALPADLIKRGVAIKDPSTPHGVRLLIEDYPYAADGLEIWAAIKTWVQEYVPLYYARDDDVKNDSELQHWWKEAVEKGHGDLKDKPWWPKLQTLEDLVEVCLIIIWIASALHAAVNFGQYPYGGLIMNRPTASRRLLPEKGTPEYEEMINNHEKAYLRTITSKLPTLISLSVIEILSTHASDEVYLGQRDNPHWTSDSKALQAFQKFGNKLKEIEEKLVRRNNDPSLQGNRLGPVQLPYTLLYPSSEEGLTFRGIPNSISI
Procedure: Our group evaluated an in vitro study as reported previously. The tested hybrids were incubated at room temperature with sodium linoleate (100 µM) and 200 µL of enzyme solution (1/9 X 10^-4 w/v in saline). […] Different concentrations were used for the determination of IC50. A blank determination was used as a negative control.
Due to the limited work on sufficiently purified human ALOX-5 isoenzyme, most of the published research was performed on the soybean homolog. […] This study used the soybean isoenzyme LOX-1, which exerts maximal activity at pH 9.0 [72].

| SMILES | AAPH inhibition (%, at 100 µM) [1] | other results |
| --- | --- | --- |
| O=C(O)/C=C/c1ccc(Br)cc1 [Compound 14] | 13% | IC50 (ovine COX-2): 100 µM |
| COC(=O)CCCNC(=O)/C=C/c1ccc2c(c1)OCO2 [Compound 20b] | 9% | IC50 [2]: 67.5 µM |
| O=C(O)/C=C/c1ccc2c(c1)OCO2 [Compound 20] | 31% | inhibition at 100 µM [2]: 27% |
| COC(=O)CC[C@H](NC(=O)/C=C/c1cccc(Br)c1)C(=O)OC [Compound 15c] | – | IC50 [2]: 75 µM |
| COC(=O)CCCNC(=O)/C=C/C=C/c1ccccc1 [Compound 23b] | 78% | IC50 (ovine COX-2): 55 µM |
| COC(=O)CC[C@H](NC(=O)/C=C/c1ccc(Cl)cc1)C(=O)OC [Compound 16c] | 26% | – |
| COC(=O)CC[C@H](NC(=O)/C=C/c1ccc(Br)cc1)C(=O)OC [Compound 14c] | 38% | IC50 [2]: 75 µM |
| COC(=O)CC[C@H](NC(=O)/C=C/c1ccc(OC)c(OC)c1)C(=O)OC [Compound 18c] | 74% | IC50 [2]: 57.5 µM |
| COC(=O)CCCNC(=O)/C=C/c1ccc2c(c1)OC(C)(C)O2 [Compound 29b] | – | COX-2 inhibition (%) (ovine COX-2): 4% |
| COC(=O)CC[C@H](NC(=O)/C=C/c1cccs1)C(=O)OC [Compound 21c] | 41% | IC50 [2]: 100 µM |
| CC1(C)Oc2ccc(/C=C/C(=O)O)cc2O1 [Compound 29, (E)-3-(2,2-dimethylbenzo[d][1, 3]dioxol-5-yl)acrylic acid] | 56% | inhibition at 100 µM [2]: 46% |
| COC(=O)CCCNC(=O)/C=C/c1ccc(F)cc1 [Compound 27b] | 22% | IC50 (ovine COX-2): 75 µM |
| COC(=O)CC[C@H](NC(=O)/C=C/c1ccc2c(c1)OCO2)C(=O)OC [Compound 20c] | 20% | LOX inhibition (%) [2]: 19% |
| CCOC(=O)CNC(=O)/C=C/c1ccc(Br)cc1 [Compound 14a] | 69% | IC50 (ovine COX-2): 65.5 µM |
| COc1cc(/C=C/C(=O)O)ccc1O [Compound 24] | 86% | inhibition at 100 µM (ovine COX-2): 14% |
| O=C(O)/C=C/c1cccc2ccccc12 [Compound 17] | 78% | – |
| COC(=O)CCCNC(=O)/C=C/c1cc(OC)ccc1OC [Compound 19b] | 70% | COX-2 inhibition (%) (ovine COX-2): 20% |
| CCOC(=O)CNC(=O)/C=C/c1ccc(O)c(OC)c1 [Compound 24a] | 82% | IC50 [2]: 100 µM |
| CCOC(=O)CNC(=O)/C=C/c1cc(OC)ccc1OC [Compound 19a] | 89% | LOX inhibition (%) [2]: 28% |
| Cc1c(C)c2c(c(C)c1O)CCC(C)(C(=O)O)O2 (centres unmarked) [Trolox, reference compound] | 92% | – |
| CCOC(=O)CNC(=O)/C=C/c1ccc(O)cc1 [Compound 25a] | 39% | – |
| COC(=O)CCCNC(=O)C=Cc1ccccc1 [Compound 22b] | 24% | IC50 (ovine COX-2): 61 µM |
